Measurements taken from patent EP4699622A1, “COMBINATION OF ANTIBODY-DRUG CONJUGATE AND OTHER MEDICINE” (Daiichi Sankyo Company, Limited, priority 2023, dated 2024).
Read-outs that look alike come from different tables or passages of the source.

What was measured:
[1] = system: CD37-positive human chronic lymphocytic leukemia cell line JVM-13; assay: Cell growth inhibition by combination with BTK inhibitors (Celltiter-Glo 2.0); type: cell-based; settings: JVM13, 144 h, read-out: D2 (50% cell growth inhibition concentration, BTK inhibitor alone)
Protocol: (§1) During the culture period, the cells were cultured under conditions of 37°C and 5% CO2 in all the cases. The cells thus cultured for 6 days were reacted using Celltiter-Glo 2.0 Cell Viability Assay (Promega Corp,) in accordance with the attached manual, followed by the measurement of the amount of luminescence from each well using a plate reader (Envision 2105 XCite multimode plate reader, PerkinElmer, Inc.). […] Cell growth inhibition rate (%) = (T/C) × 100 [formula]
(§2) From the calculated 50% cell growth inhibition concentrations (anti-CD37 antibody-drug conjugate (1) alone: D1, each BTK inhibitor alone: D2, anti-CD37 antibody-drug conjugate (1) in the combination: d1, each BTK inhibitor drug in the combination: d2), a combination index (CI) was calculated according to the following formula, and assessed as a synergistic effect with CI < 1, an additive effect with CI = 1, and an antagonizing effect with CI > 1 (see Adv. Enzyme Regul. 1984, P. 2227-55) . CI = (d1/D1) + (d2/D2) [formula]

[2] = system: CD37-positive human chronic lymphocytic leukemia cell line JVM-3; assay: as above; type: cell-based; settings: read-out: D2 (50% cell growth inhibition concentration, BTK inhibitor alone)
Protocol: as §1, §2

[3] = system: CD37-positive human chronic lymphocytic leukemia cell line JVM-2; assay: as above; type: cell-based; settings: read-out: D2 (50% cell growth inhibition concentration, BTK inhibitor alone)
Protocol: as §1, §2

[4] = system: CD37-positive human chronic lymphocytic leukemia cell line JVM-13; assay: Antitumor effect - (4): JVM-13 subcutaneous xenograft; settings: JVM-13 xenograft; for TGI (%): Day 35, grouping Day 14, ADC (1) 0.3 mg/kg i.v. once, rituximab 10 mg/kg i.v. once, bendamustine 12.5 mg/kg i.p. day of grouping and next day, venetoclax 100 mg/kg oral every day, ibrutinib 200 mg/kg oral every day; for CR (%) on final day of observation / Change from baseline (%): ADC (1) 0.3 mg/kg i.v., rituximab 10 mg/kg i.v., bendamustine 12.5 mg/kg i.p. x2, venetoclax 100 mg/kg oral daily, ibrutinib 200 mg/kg oral daily; for Change from baseline (%): tumor volume on Day 35 vs Day 14 baseline

For `CC#CC(=O)N1CCC[C@H]1c1nc(-c2ccc(C(=O)Nc3ccccn3)cc2)c2c(N)nccn12` [Acalabrutinib, acalabrutinib], the IC50 ([1]; JVM-13, 6 days culture) was 7.15 µM, the IC50 ([2]; 144 h, JVM-3, 6 days culture) was 16.6 µM and the IC50 ([3]; 144 h, JVM-2, 6 days culture) was 25.8 µM.
`CC1(C)CCC(CN2CCN(c3ccc(C(=O)NS(=O)(=O)c4ccc(NCC5CCOCC5)c([N+](=O)[O-])c4)c(Oc4cnc5[nH]ccc5c4)c3)CC2)=C(c2ccc(Cl)cc2)C1` [Venetoclax, venetoclax] was tested, and the “TGI (%)” value [4] was 25%, the “CR (%) on final day of observation” value [4] was 0% and the “Change from baseline (%)” value [4] was 490.9%.
`C=CC(=O)N1CCC[C@@H](n2nc(-c3ccc(Oc4ccccc4)cc3)c3c(N)ncnc32)C1` [Ibrutinib, ibrutinib] gave an IC50 [1] of 0.58 µM, an IC50 ([2]; JVM-3, 144 h) of 0.27 µM and an IC50 ([3]; JVM-2, 144 h) of 1.19 µM. For the same compound, the “TGI (%)” value [4] was -12%, the “CR (%) on final day of observation” value [4] was 0% and the “Change from baseline (%)” value [4] was 776.7%.
`C=CC(=O)N1CCC([C@@H]2CCNc3c(C(N)=O)c(-c4ccc(Oc5ccccc5)cc4)nn32)CC1` [Zanubrutinib, zanubrutinib] was tested, and the IC50 ([1]; JVM-13, 6 days culture) was 2.83 µM, the IC50 ([2]; 144 h, JVM-3, 6 days culture) was 17.9 µM and the IC50 ([3]; 144 h, JVM-2, 6 days culture) was 6.86 µM.
